Results as given in US20250090498A1, “TREATMENT OF PRIMARY CTLA-4 CHECKPOINT RELATED IMMUNODEFICIENCIES” (ADIENNE PHARMA & BIOTECH SA, priority 2023, published 2025).
Read-outs that look alike come from different tables or passages of the source.

Legend:
[1] = test system: immune-mediated colitis; assay: immune-mediated colitis in Rag1−/− mice infused with CD4+ T cells and treated with anti-CTLA-4 mAb; assay type: in vivo
Procedure: Immunodeficient Rag1^−/− mice reconstituted with naïve CD4^+ T cells and treated with anti-CTLA-4 monoclonal antibody. Rag1−/− mice, mice homozygous for the RagltmlMom mutation produce no mature T cells or B cells. Their phenotype can be described as a “non-leaky” immune deficiency. Rag1−/− 8-10 weeks old mice were injected intraperitoneally with 4×10^5 naïve CD4^+ T cells purified from spleens of C57BL/6 mice and treated with anti-CTLA-4 mAb or control IgG the day after T-cell reconstitution and then at days 0, 4, 8, 12, and 16. […] Mice were monitored daily for overall mortality and body weight loss and sacrificed on day 21.

[2] = test system: DSS+anti-CTLA-4-induced colitis; assay: DSS+anti-CTLA-4-induced colitis in 8-10 wk-old Il10−/− mice; assay type: in vivo
Procedure: Il10^−/− Mice received DSS (1%) in their drinking water and 100 μg anti-CTLA-4 monoclonal antibody intraperitoneally at days 0, 4 and 8 following the DSS administration. 3-IAld-Eudragit was given (18 mg/kg 3-IAld) intragastrically every other day throughout the experiment, starting 2 days before treatment. Animals were monitored daily for body weight and inflammatory pathology in the colon until 14 days after DSS administration.

[3] = test system: pathology after acute treatment with anti-CTLA-4 monoclonal antibody; assay: acute anti-CTLA-4 treatment in 8-10 week-old Il10−/− mice, without DSS; assay type: in vivo
Procedure: Il10^−/− mice were treated with anti-CTLA-4 monoclonal antibody and 3-IAld alone, as above (FIG. 6), without DSS. Animals were monitored daily for body weight and inflammatory pathology in the colon and sacrificed at 14 days after the first anti-CTLA-4 monoclonal antibody administration.

[4] = test system: disease progression in IL-10-deficient mice; assay: disease progression in 16 wk-old IL-10-deficient mice, 3-IAld for 4 weeks then 1% DSS; assay type: in vivo, Il10−/− mice; details: 3-IAld every other day for 4 weeks
Procedure: Sixteen week-old IL-10-deficient mice (Il10^−/−) were treated with 3-IAld every other day for 4 weeks, as illustrated in FIG. 10A. As a mimic of disease exacerbation, mice received 1% DSS after 3-IAld treatment and subsequently evaluated for weight change, intestinal pathology and epithelial integrity.

[5] = toxicology, 3 weeks, H&E tissue pathology in naive C57BL/6 and AhR−/− mice; assay type: in vivo; details: Eudragit-formulated, intragastrically every other day for 3 weeks, two concentrations
From the text: Eudragit-formulated 3-IAld (Puccetti et al, 2018) was given intragastrically every other day, at the doses indicated for 3 weeks to naive C57BL/6 and AhR−/− mice. At the end of treatment, mice were sacrificed, and tissue pathology blindly examined on different organs after Hematoxylin and Eosin (H&E) staining.

[6] = test system: AhR; details: cited from earlier work
[7] = cited from earlier work
[8] = test system: graft-versus-host disease (GvHD); details: mouse, in vivo; cited from earlier work
[9] = test system: colitis, gastrointestinal and vaginal candidiasis; details: mouse, in vivo; cited from earlier work
[10] = test system: AhR; assay: AhR luciferase reporter in mouse hepatoma cells H1L6.1c3; assay type: cell-based; parameters: dose or concentration left out as unconfirmed; details: higher RLU at 2 h lasting until 24h
Procedure: The ability of 1ME3CA was comparatively assessed here in mouse hepatoma cells (H1L6.1c3), kindly provided by Allison K. Ehrlich (Meyer Hall, University of California, Davis, United States), containing the stably integrated AhR xenobiotic responsive element driven by a firefly luciferase reporter plasmid, pGudLuc6.167. Cells were plated in MEMA (Gibco), supplemented with 10% fetal serum bovine and 1% penicillin-streptomycin solution, in 24-well plate and stimulated with different concentrations of either 3-IAld or 1ME3CA. Luciferase activity, calculated as relative light units (RLU) per microgram of protein and expressed as fold induction, was carried at 2 or 24 hours of exposure.

[11] = biological target: T1, AhR (Homo sapiens, UniProt P35869); assay: AhR-dependent genes in vitro in cell lines (data not shown); assay type: cell-based; parameters: host or cells: unnamed cell lines; details: preliminary
T1 sequence (P35869 11-848): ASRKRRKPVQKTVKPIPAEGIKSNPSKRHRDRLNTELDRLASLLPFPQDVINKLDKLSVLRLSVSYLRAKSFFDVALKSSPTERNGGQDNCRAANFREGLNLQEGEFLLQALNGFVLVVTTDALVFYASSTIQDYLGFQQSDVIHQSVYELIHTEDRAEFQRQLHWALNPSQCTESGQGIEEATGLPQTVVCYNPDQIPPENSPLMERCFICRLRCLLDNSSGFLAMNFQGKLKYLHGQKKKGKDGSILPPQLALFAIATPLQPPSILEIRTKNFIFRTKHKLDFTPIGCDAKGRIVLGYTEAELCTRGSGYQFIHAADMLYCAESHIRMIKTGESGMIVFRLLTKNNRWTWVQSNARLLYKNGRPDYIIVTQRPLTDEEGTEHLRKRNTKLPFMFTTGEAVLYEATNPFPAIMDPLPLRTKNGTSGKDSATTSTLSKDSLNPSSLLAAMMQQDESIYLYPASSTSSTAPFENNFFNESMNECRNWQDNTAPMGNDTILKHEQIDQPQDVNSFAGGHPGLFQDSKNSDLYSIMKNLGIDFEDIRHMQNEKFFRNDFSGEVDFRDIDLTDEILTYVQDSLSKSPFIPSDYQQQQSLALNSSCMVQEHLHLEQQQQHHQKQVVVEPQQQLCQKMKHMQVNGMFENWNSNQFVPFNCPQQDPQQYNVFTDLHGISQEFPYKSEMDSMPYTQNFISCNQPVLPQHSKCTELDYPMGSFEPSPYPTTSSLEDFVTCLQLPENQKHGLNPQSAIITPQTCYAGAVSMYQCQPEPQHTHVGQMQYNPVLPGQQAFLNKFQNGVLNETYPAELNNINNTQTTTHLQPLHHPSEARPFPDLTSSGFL
Procedure: Specifically, the oxidated form of 3-IAld (indole-3-formic acid), and methylated forms of indole-3-formic acid, were detected following administration of labelled 3-IAld. For example, 1-Methylindole-3-carboxylic acid was detected with the same kinetics of indole-3-formic acid, with peak levels at 30 min (FIGS. 13C and 13D). Few studies have been performed assessing the biological activities of methylindoles and methoxyindoles as aryl hydrocarbon receptor (AhR) activators.

[12] = 3-IAld-Eudragit 18 mg/kg, DSS 1%

For O=Cc1c[nH]c2ccccc12 [3-IAld, 1H-indole-3-carbaldehyde], the “progression of immune-mediated colitis (overall)” value ([1]; 3-IAld 18 mg/kg) was “limits progression”, the weight loss ([1]; 3-IAld 18 mg/kg intragastrically every other day, 21 days) was “reduced” and the colon histopathology ([1]; 3-IAld 18 mg/kg, day 21) was “improved”. For the same compound, the gross pathology ([1]; 3-IAld 18 mg/kg, day 21) was “improved”, the “DSS+anti-CTLA-4-induced colitis (overall)” value ([2]; 3-IAld) was “protects” and the “loss of body weight” value ([2]; 3-IAld-Eudragit 18 mg/kg intragastrically every other day, DSS 1%) was “prevented”. For the same compound, the disease activity index [2, 12] was “decreased”, the “inflammatory pathology (colon)” value [2, 12] was “decreased” and the “pathology after acute anti-CTLA-4 treatment (overall)” value ([3]; 3-IAld) was “protects”. For the same compound, the body weight loss ([3]; 3-IAld as in the DSS model, 14 days) was “prevented”, the “inflammatory pathology (colon)” value ([3]; 3-IAld, 14 days) was “ameliorated” and the “massive cellular infiltrate (submucosa)” value ([3]; 3-IAld, 14 days) was “reducing”. The colon inflammatory histopathology [4] was “slow down”, the “disease progression (overall)” value [4] was “slows disease progression” and the “loss of body weight” value [4] was “slow down”. The “epithelial integrity and renewal” value ([4]; PAS and Ki-67) was “maintain”, the “tissue pathology in different organs (H&E)” value [5] was “absence of visible tissue pathology” and the “dose range inducing luciferase activity” value ([6]; as printed in b215) was 0.1 to 100 mM. The “dose range inducing luciferase activity” value ([6]; as printed in b238) was 0.0001 to 0.1 mM, the “acidity (based on its pKa)” value [7] was “very weakly acidic” and the solubility in water [7] was “slightly soluble”. For the same compound, the gut epithelial damage [8] was “limited”, the inflammatory cytokine production [8] was “decreased” and the transepithelial bacterial translocation [8] was “reduced”. For the same compound, the “barrier integrity and production of antimicrobial peptides” value [9] was “enhanced”.

For Cn1cc(C(=O)O)c2ccccc21 [1-methylindole-3-carboxylic acid, 1-Methyl-1H-indole-3-carboxylic acid], the “induction of luciferase activity (RLU, fold induction) versus 3-IAld” value [10] was “more potent inducer of luciferase activity” and the “activation of AhR-dependent genes” value [11] was “activated AhR-dependent genes in a dose-dependent manner”.
